Test systems include DMS 273 small cell lung; XF 498 CNS; BT-549 breast; DLD-1 colon; LXFL 529 NSCLC; DMS 114 small cell lung; SNB-78 CNS; RXF-631 renal; KM20L2 colon.
What all share (test): inhibition of tumour cell growth, NCI panel, 48 h

The structures appear in SMILES notation. Values joined by “and” are separate entries in the source; they are usually repeats but may differ in a detail not shown here. Equal values may be shown once.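 A five-concentration, 48-hour dose response in 96-well plates underlies each endpoint, interpolated linearly between surrounding concentrations. Abbreviation: GI50, concentration required for 50% inhibition of growth. Definition used: TGI = concentration required for complete inhibition of growth.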 Bounds are passed on as bounds.

In PubChem BioAssay (NCI) one finds TGI and GI50 data, which are given here for four molecules.

With `CCOC(=O)Nc1nc2ccc(Cn3cccc3)cc2[nH]1`, the TGI in the assay on DMS 273 small cell lung was greater than 100 µM; in the assay on XF 498 CNS, greater than 85 µM; in the assay on BT-549 breast, greater than 100 µM; in the assay with DLD-1 colon, greater than 100 µM; in the assay with LXFL 529 NSCLC, greater than 100 µM; in the assay on DMS 114 small cell lung, greater than 100 µM. Besides, the TGI in the assay on SNB-78 CNS is greater than 100 µM; in the assay with RXF-631 renal, greater than 100 µM; in the assay on KM20L2 colon, 12.9 µM.

`CC1=C(C(=O)Nc2ccccc2C)C(c2ccc(Cl)c(Cl)c2)C(C(=O)Nc2ccccc2C)=C(C)N1`: the TGI with DMS 273 small cell lung is 41.1 µM; with XF 498 CNS, 56.4 µM; with DLD-1 colon, greater than 100 µM; with LXFL 529 NSCLC, 43.4 µM; in the assay with DMS 114 small cell lung it was 41 µM; in the assay on SNB-78 CNS it was greater than 100 µM. For the same molecule, the figures for the TGI in the assay on RXF-631 renal and in the assay with KM20L2 colon were 73.2 µM and 34.8 µM, respectively.

In the case of `CCN(CC)CCCC(C)Nc1c2ccc(Cl)cc2nc2ccc(OC)cc12` (stereo not given), the TGI in the assay with DMS 273 small cell lung was 2.04 µM; with XF 498 CNS it was 3.12 µM; with BT-549 breast it was 4.84 µM and 6.51 µM; with DLD-1 colon it was 4.39 µM; with LXFL 529 NSCLC, 2.95 µM; in the assay with DMS 114 small cell lung, 3.1 µM. The TGI was 11.5 µM in the assay on SNB-78 CNS, 3.55 µM in the assay on RXF-631 renal and 3 µM in the assay with KM20L2 colon. Also, the GI50 in the assay with BT-549 breast was 2.17 µM.

On to `Cc1[nH]c2ccccc2c1C1Cc2ccccc2N1C(=O)/C=C\C(=O)O` (stereo not given), for which the TGI in the assay with DMS 273 small cell lung was greater than 100 µM; in the assay on XF 498 CNS, 47.8 µM; in the assay with DLD-1 colon, greater than 100 µM; in the assay with LXFL 529 NSCLC, 41.1 µM; with DMS 114 small cell lung, 64.4 µM; with SNB-78 CNS, greater than 100 µM. Further, the TGI in the assay with RXF-631 renal and in the assay with KM20L2 colon was greater than 100 µM in each case.
